Reference: paper PMC11840605, “Crystallographic and Thermodynamic Evidence of Negative Coupling in the Flavin-Dependent Tryptophan Halogenases AbeH and BorH” (ACS Omega, 2025)
“And” between values parts separate entries of the source, which are not always exact repeats. Identical values can stand only once.

Assays:
BorF = details: read-out: KD, flavin binding to BorF; cited from earlier work
AbeH [1] = molecular target: T1, AbeH (uncultured bacterium, UniProt F6LWA5); experiment: Quenching of AbeH intrinsic Trp fluorescence upon FAD titration; set-up: species or system uncultured soil actinomycetes; details: FAD binding to AbeH, 100 nM AbeH
T1 sequence (F6LWA5 entry or part of it): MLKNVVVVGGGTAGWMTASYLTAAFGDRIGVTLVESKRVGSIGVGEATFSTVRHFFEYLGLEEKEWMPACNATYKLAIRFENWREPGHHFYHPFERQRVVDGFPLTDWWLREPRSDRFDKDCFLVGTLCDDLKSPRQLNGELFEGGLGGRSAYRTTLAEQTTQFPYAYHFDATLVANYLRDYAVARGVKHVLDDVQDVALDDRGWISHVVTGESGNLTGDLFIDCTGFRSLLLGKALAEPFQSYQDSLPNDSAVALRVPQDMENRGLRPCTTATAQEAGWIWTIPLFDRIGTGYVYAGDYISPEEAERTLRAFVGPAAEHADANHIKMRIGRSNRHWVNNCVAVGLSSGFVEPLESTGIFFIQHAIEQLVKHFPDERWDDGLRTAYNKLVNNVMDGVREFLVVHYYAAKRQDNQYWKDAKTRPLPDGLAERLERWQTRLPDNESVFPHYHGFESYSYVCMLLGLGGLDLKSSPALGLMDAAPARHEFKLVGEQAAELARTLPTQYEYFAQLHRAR
Description: Intrinsic tryptophan fluorescence spectroscopy was used to measure FAD binding to AbeH and BorH in 20 mM HEPES pH 7.7- and 50 mM sodium citrate. FAD was prepared in the same buffer and its concentration was determined spectrophotometrically as described earlier. Fluorescence experiments were performed as described earlier. FAD binding to apo-AbeH or apo-BorH was performed in duplicate with 100 nM fixed AbeH or BorH with variable FAD concentrations up to 30 and 70 μM, respectively. AbeH/FAD binding was monitored using excitation at 295 nm and emission at 328 nm. BorH/FAD binding was monitored using excitation at 290 nm and emission at 326 nm. Inner filter effect corrected fluorescence intensities were plotted against quenched intrinsic tryptophan fluorescence of AbeH and BorH. Data were fitted by nonlinear regression to eq 1 using GraphPad Prism 8.0.
Figure S9: FAD binding determined by quenching of BorH and AbeH intrinsic Trp fluorescence.
A. Variable concentrations of FAD (0-70 µM) were incubated with 100 nM BorH and Trp fluorescence was measured with excitation at 290 nm and emission at 326 nm. […]
B. Variable concentrations of FAD (0-30 µM) were incubated with 100 nM AbeH and Trp fluorescence was measured […] with excitation at 295 nm and emission at 328 nm. […]

AbeH/Trp = AbeH/Trp (uncultured bacterium, UniProt F6LWA5); experiment: FAD fluorescence quenching titration with AbeH preincubated with Trp; type: binding, uncultured soil actinomycetes
AbeH/Trp, sequence (F6LWA5 entry or part of it): as above
Description: Quenching of FAD fluorescence quenching upon binding to AbeH was measured in the absence and presence of Trp in 20 mM Tris-HCl pH 8.0 and 100 mM NaCl using a Quantmaster 40 fluorimeter (Photon Technologies International). Trp and FAD solutions were prepared in 20 mM Tris-HCl pH 8, and concentrations were determined by absorbance at 280 and 450 nm, respectively. FAD fluorescence was measured using excitation at 450 nm (4 nm slit opening) and emission set at 525 nm (6 nm slit opening) using a fluorescence cuvette to collect 50 scans, which were averaged later during data processing in Microsoft Excel. […] Raw fluorescence intensities were corrected for the buffer, Trp, and AbeH background contributions. Quenched fluorescence intensity was plotted vs AbeH concentration and fit to eq 1 using GraphPad Prism 8.0 by nonlinear regression analysis. In eq 1, F = fractional saturation, ΔF = fluorescence quenching upon AbeH/FAD complex formation (calculated from the difference of FAD fluorescence intensity at different AbeH concentration), ΔFmax = maximum fluorescence change obtained from fit, [AbeHFAD] = FAD-bound AbeH, [AbeH]T = Total AbeH concentration, [FAD]T = Total FAD concentration, KD = equilibrium dissociation constant. […]
A. Fluorescence quenching observed from binding of Apo-AbeH ([…]) to […] FAD; […]

AbeF = details: read-out: KD, flavin binding to AbeF; cited from earlier work
AbeH [2] = molecular target: T1, AbeH; experiment: Time-course of in vitro Trp chlorination and bromination by AbeH; type: biochemical, uncultured soil actinomycetes
Description: Time-course experiments were done using 1.7 μM AbeH, 3.3 μM holo-AbeF, 500 μM Trp, 2.5 mM NADH in 10 mM Na/KPO4 pH 8.2 with either 50 mM NaCl or 100 mM NaBr. Reactions were incubated for 5 min at 37 °C and NADH was added to start the reactions. Aliquots of 100 μL were quenched and analyzed by RP-HPLC at various time points. Unreacted substrate and product concentrations were calculated using peak areas and standard curves of Trp, 5-Cl-Trp, and 5-Br-Trp.
Figure S4: Time-course of in vitro Trp chlorination and bromination by AbeH.
Reaction conditions: 1.7 µM AbeH, 3.3 µM holo-AbeF, 0.5 mM Trp, 2.5 mM NADH, 10 mM Na/KPO4 pH 8.2, and either 50 mM NaCl (A) or 100 mM NaBr (B). Concentration of product formed was calculated from RP-HPLC chromatogram integrated A280 peak areas compared to standard curves of integrated peak areas of known concentrations of 5-Cl-Trp and 5-Br-Trp standards. Experiments were carried out in duplicate. (A) Time course of Trp chlorination by AbeH has chlorination specific activity of 87 µmol min-1 mg-1. (B) Time course of Trp bromination by AbeH has bromination specific activity of 34 µmol min-1 mg-1.
(1 picture or pasted object on this page, not shown here)

BorH = BorH (uncultured bacterium, UniProt M9QSI0); details: previously shown; cited from earlier work
BorH, sequence (M9QSI0 1-529): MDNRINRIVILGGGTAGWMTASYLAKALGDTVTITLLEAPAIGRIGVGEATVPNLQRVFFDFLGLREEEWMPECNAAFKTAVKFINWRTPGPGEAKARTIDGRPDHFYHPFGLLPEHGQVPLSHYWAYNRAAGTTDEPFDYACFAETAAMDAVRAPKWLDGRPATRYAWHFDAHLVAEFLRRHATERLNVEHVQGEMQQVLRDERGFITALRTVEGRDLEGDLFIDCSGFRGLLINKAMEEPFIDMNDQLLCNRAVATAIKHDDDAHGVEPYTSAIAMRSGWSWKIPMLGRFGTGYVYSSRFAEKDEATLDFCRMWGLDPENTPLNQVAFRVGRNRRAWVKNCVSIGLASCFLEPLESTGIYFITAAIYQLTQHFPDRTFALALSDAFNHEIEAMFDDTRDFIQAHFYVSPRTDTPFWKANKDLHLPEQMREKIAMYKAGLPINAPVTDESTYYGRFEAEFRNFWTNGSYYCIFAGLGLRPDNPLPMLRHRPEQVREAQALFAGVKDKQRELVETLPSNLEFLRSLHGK

| Compound | Kd (BorF) [nM] | Kd (AbeH [1]) | Kd (AbeH/Trp; AbeH/FAD KD, FAD fluorescence quenching (Figure S10 B), in the presence of 0.3 mM Trp) [nM] | Kd (AbeH/Trp; KD, FAD binding to AbeH/Trp, FAD fluorescence, AbeH preincubated with Trp) [nM] | Kd (AbeF) [nM] | Specific activity of AbeH for Trp chlorination relative to Trp bromination (AbeH [2]) | Specific activity of AbeH for chlorination of Trp (AbeH [2]; 1.7 μM AbeH, 500 μM Trp, 50 mM NaCl, 37 °C) [μM min^–1 mg^–1] | Specific activity of AbeH for bromination of Trp (AbeH [2]; 1.7 μM AbeH, 500 μM Trp, 100 mM NaBr, 37 °C) [μM min^–1 mg^–1] | AbeH chlorination specific activity (AbeH [2]; Figure S4 A, 0.5 mM Trp, 50 mM NaCl) [µmol/min/mg] | AbeH bromination specific activity (AbeH [2]; Figure S4 B, 0.5 mM Trp, 100 mM NaBr) [µmol/min/mg] | Halogenation of the substrate by BorH, in words (BorH) |
| --- | --- | --- | --- | --- | --- | --- | --- | --- | --- | --- | --- |
| Cc1cc2nc3c(=O)[nH]c(=O)nc-3n(C[C@H](O)[C@H](O)[C@H](O)COP(=O)(O)OP(=O)(O)OC[C@H]3O[C@@H](n4cnc5c(N)ncnc54)[C@H](O)[C@@H]3O)c2cc1C [FAD] | 100 | 960 nM and 1000 nM | 3100 | 7700 ± 2200 | 800 | – | – | – | – | – | – |
| N[C@@H](Cc1c[nH]c2ccccc12)C(=O)O [Tryptophan, L-tryptophan] | – | – | – | – | – | approximately 2.5 × | 87 | 34 | 87 | 34 | brominate and chlorinate |
